In experiment [1] the target is Replicase polyprotein 1ab (Severe acute respiratory syndrome-related coronavirus, UniProt P0C6X7). Nature of the experiment: Inhibition of SARS-CoV 3C-like protease by FRET based microplate assay.
The test system of experiment [2] is SARS-CoV. In words: Antiviral activity against SARS coronavirus. As to conditions: Severe acute respiratory syndrome-related coronavirus. The format is functional, organism-based.

This is an account of results in ChEMBL document CHEMBL1137503, “Structure-based design, synthesis, and biological evaluation of peptidomimetic SARS-CoV 3CLpro inhibitors” (Bioorg Med Chem Lett, 2007).

By IC50 is commonly meant the concentration that inhibits the measured activity by half. For `CCOC(=O)/C=C/[C@H](C[C@@H]1CCNC1=O)NC(=O)[C@@H](CC(=O)[C@@H](NC(=O)c1cc(C)on1)C(C)C)Cc1ccccc1`, the half-inhibitory concentration (IC50) in experiment [1] stood at 870 µM; in experiment [2] it was 45 µM. As to `CCOC(=O)/C=C/[C@H](C[C@@H]1CCNC1=O)NC(=O)[C@H](CC=C(C)C)CC(=O)[C@@H](NC(=O)c1cc(C)on1)C(C)C`, the IC50 in experiment [1] is 800 µM; in experiment [2], 70 µM.

In the case of `CCOC(=O)/C=C/[C@H](C[C@@H]1CCNC1=O)NC(=O)[C@H](Cc1ccccc1)NC(=O)[C@@H](NC(=O)[C@H](CO)NC(=O)OC(C)(C)C)C(C)C`, the half-maximal inhibitory concentration (IC50) in experiment [1] worked out at 15 µM; in experiment [2] it was 100 µM. `CCOC(=O)/C=C/[C@H](C[C@@H]1CCNC1=O)NC(=O)[C@H](Cc1ccccc1)NC(=O)[C@@H](NC(=O)c1cc(C)on1)C(C)C` gave an IC50 in experiment [1] of 300 µM. Turning to `CCOC(=O)/C=C/[C@H](C[C@@H]1CCNC1=O)NC(=O)[C@H](CC=C(C)C)CC(=O)[C@@H](NC(=O)[C@H](CO)NC(=O)OC(C)(C)C)C(C)C`, the IC50 in experiment [1] was determined as 80 µM; in experiment [2], 75 µM. `CCOC(=O)/C=C/[C@H](C[C@@H]1CCNC1=O)NC(=O)[C@H](CC(C)C)NC(=O)[C@@H](NC(=O)c1cc(C)on1)C(C)C` gave an IC50 in experiment [1] of 200 µM. Turning to `CCOC(=O)/C=C/[C@H](C[C@@H]1CCNC1=O)NC(=O)[C@H](CC(C)C)NC(=O)[C@@H](NC(=O)[C@H](CO)NC(=O)OC(C)(C)C)C(C)C`, the IC50 in experiment [1] is 10 µM; in experiment [2], 100 µM.
